Experimental data taken from US20220267260A1, “COMPOUNDS CONTAINING A SULFONIC GROUP AS KAT INHIBITORS” (Epizyme, Inc., priority 2016, published 2022).

Columns and labels:
[1] = target: T1, KAT5 (Homo sapiens, UniProt Q92993); test: KAT5 enzyme inhibition assay (SAMDI mass spectrometry); assay type: biochemical; details: His-TEV-FL KAT5-Flag enzyme construct
T1 construct: His-TEV tag (N, cleaved yes); made in house

[2] = target: T2, KAT6A (Homo sapiens, UniProt Q92794); test: KAT6A enzyme inhibition assay (SAMDI mass spectrometry); assay type: biochemical; details: His-TEV-KAT6A 501-784 enzyme construct
T2 construct: His-TEV tag (N, cleaved yes); made in house
T2 sequence (Q92794 with tags, fused parts or gaps): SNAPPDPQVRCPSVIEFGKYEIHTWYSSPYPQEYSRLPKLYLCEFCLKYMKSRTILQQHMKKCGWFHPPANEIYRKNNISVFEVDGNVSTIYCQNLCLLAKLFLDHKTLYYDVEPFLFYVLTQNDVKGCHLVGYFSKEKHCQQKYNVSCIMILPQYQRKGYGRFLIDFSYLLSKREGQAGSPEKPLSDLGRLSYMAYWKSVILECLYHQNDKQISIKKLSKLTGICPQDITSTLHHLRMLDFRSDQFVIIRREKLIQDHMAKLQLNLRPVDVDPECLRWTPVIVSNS

T1 sequence (Q92993 with tags, fused parts or gaps): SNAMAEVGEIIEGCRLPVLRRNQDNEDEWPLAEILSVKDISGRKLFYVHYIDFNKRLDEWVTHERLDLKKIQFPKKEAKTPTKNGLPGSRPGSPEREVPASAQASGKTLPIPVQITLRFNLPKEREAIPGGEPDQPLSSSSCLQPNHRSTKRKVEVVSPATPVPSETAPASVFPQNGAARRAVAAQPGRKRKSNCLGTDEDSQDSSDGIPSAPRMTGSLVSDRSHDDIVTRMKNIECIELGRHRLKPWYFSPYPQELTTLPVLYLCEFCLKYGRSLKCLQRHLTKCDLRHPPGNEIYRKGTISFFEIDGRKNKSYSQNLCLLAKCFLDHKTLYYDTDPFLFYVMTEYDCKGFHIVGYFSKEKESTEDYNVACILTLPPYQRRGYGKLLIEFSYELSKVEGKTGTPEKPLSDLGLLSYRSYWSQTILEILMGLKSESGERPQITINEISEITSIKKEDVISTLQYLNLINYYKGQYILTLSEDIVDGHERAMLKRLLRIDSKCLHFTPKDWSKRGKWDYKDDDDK

IC50 [1] [µM]	IC50 [2] [µM]	Structure (SMILES)
≤ 10	≤ 10	O=C(NNS(=O)(=O)CC1CCOCC1)c1cc(-c2cccc(F)c2)cc(Cl)c1F [Compound I-397]
50 to 100	10 to 50	Cc1cc(-c2cccc(F)c2Cl)cc(C(=O)NNS(=O)(=O)CC2CCCCC2)c1F [Compound I-398]
50 to 100	50 to 100	Cc1cc(-c2cccc(F)c2Cl)cc(C(=O)NNS(=O)(=O)C2CCCCC2)c1F [Compound I-399]
≤ 10	≤ 10	O=C(NNS(=O)(=O)CC1CCOCC1)c1cc(-c2ccccc2)cc(Cl)c1F [Compound I-400]
≤ 10	≤ 10	CC(C)(C)OC(=O)N1CCCC(CS(=O)(=O)NNC(=O)c2cc(-c3ccccc3)cc(Cl)c2F)C1 (stereo not drawn) [Compound I-401]
> 100	> 100	Cn1cnc2cc(-c3ccccc3)c(F)c(C(=O)NNS(=O)(=O)C3CCCCC3)c21 [Compound I-402]
> 100	> 100	Cc1cc(-c2cccc(OCCN(C)C)c2)cc(C(=O)NNS(=O)(=O)C2CCCCC2)c1F [Compound I-403]
10 to 50	10 to 50	Cc1cccc(-c2cc(Cl)c(F)c(C(=O)NNS(=O)(=O)C3CCCCC3)c2)c1 [Compound I-404]
10 to 50	> 100	CC(C)(C)OC(=O)N1CCC(S(=O)(=O)NNC(=O)c2cc(Cl)cc(Cl)c2F)CC1 [Compound I-405]
> 100	> 100	O=C(NNS(=O)(=O)C1CCNCC1)c1cc(Cl)cc(Cl)c1F [Compound I-406]
> 100	> 100	CN1CCC(c2ccc(F)c(C(=O)NNS(=O)(=O)C3CCCCC3)c2)C1 (stereo not drawn) [Compound I-407]
≤ 10	10 to 50	COCCN1CCCC(CS(=O)(=O)NNC(=O)c2cc(-c3cccc(F)c3)cc(C)c2F)C1 (stereo not drawn) [Compound I-408]
10 to 50	10 to 50	Cc1cc(-c2ccccc2)cc(C(=O)NNS(=O)(=O)CC2CCCN(C(=O)CCN(C)C)C2)c1F (stereo not drawn) [Compound I-409]
10 to 50	10 to 50	O=C(NNS(=O)(=O)CC1CCCNC1)c1cc(-c2ccccc2)cc(Cl)c1F (stereo not drawn) [Compound I-410]
≤ 10	10 to 50	O=C(NNS(=O)(=O)CC1CCCCC1)c1cc(Cl)cc(Cl)c1F [Compound I-411]
10 to 50	> 100	O=C(NNS(=O)(=O)CC1CCOCC1)c1cc(Cl)cc(Cl)c1F [Compound I-412]
10 to 50	> 100	O=C(NNS(=O)(=O)C1CCCCC1)c1cc(Cl)cc(Cl)c1F [Compound I-413]
> 100	> 100	O=C(NNS(=O)(=O)C1CCOCC1)c1cc(Cl)cc(Cl)c1F [Compound I-414]
10 to 50	≤ 10	CNC(=O)c1cccc(-c2cc(C)c(F)c(C(=O)NNS(=O)(=O)c3ccccc3)c2)c1 [Compound I-415]
50 to 100	50 to 100	O=C(NNS(=O)(=O)CC1CCCNC1)c1cc(-c2cccc(F)c2)cc(Cl)c1F (stereo not drawn) [Compound I-416]
≤ 10	≤ 10	O=C(NNS(=O)(=O)CC1CCCN(C(=O)C2CCC2)C1)c1cc(-c2cccc(F)c2)cc(Cl)c1F (stereo not drawn) [Compound I-417]
≤ 10	≤ 10	COCC(=O)N1CCCC(CS(=O)(=O)NNC(=O)c2cc(-c3cccc(F)c3)cc(Cl)c2F)C1 (stereo not drawn) [Compound I-418]

IC50 [1] [µM]	IC50 [2] [µM]	Structure (SMILES)
≤ 10	≤ 10	O=C(NNS(=O)(=O)CC1CCCN(C(=O)C2CCOCC2)C1)c1cc(-c2ccccc2)cc(Cl)c1F (stereo not drawn) [Compound I-419]
10 to 50	> 100	CCc1cc(Cl)c(F)c(C(=O)NNS(=O)(=O)C2CCCCC2)c1 [Compound I-420]
≤ 10	10 to 50	CCc1cc(Cl)c(F)c(C(=O)NNS(=O)(=O)CC2CCCCC2)c1 [Compound I-421]
> 100	> 100	CCc1cc(Cl)c(F)c(C(=O)NNS(=O)(=O)C2CCOCC2)c1 [Compound I-422]
10 to 50	> 100	CCc1cc(Cl)c(F)c(C(=O)NNS(=O)(=O)CC2CCOCC2)c1 [Compound I-423]
≤ 10	≤ 10	Cc1cc(-c2ccccc2)cc(C(=O)NNS(=O)(=O)CC2CN(C(=O)OC(C)(C)C)CCO2)c1F (stereo not drawn) [Compound I-424]
≤ 10	≤ 10	Cc1cc(-c2cccc(F)c2)cc(C(=O)NNS(=O)(=O)CC2CN(C(=O)OC(C)(C)C)CCO2)c1F (stereo not drawn) [Compound I-425]
10 to 50	≤ 10	Cc1cc(-c2ccccc2)cc(C(=O)NNS(=O)(=O)CC2CNCCO2)c1F (stereo not drawn) [Compound I-426]
≤ 10	≤ 10	CC(=O)N1CCOC(CS(=O)(=O)NNC(=O)c2cc(-c3ccccc3)cc(C)c2F)C1 (stereo not drawn) [Compound I-427]
10 to 50	≤ 10	Cc1cc(-c2cccc(F)c2)cc(C(=O)NNS(=O)(=O)CC2CNCCO2)c1F (stereo not drawn) [Compound I-428]
≤ 10	≤ 10	CC(=O)N1CCOC(CS(=O)(=O)NNC(=O)c2cc(-c3cccc(F)c3)cc(C)c2F)C1 (stereo not drawn) [Compound I-429]
50 to 100	> 100	COc1cc(Cl)c(F)c(C(=O)NNS(=O)(=O)C2CCOCC2)c1 [Compound I-430]
10 to 50	50 to 100	COc1cc(Cl)c(F)c(C(=O)NNS(=O)(=O)CC2CCOCC2)c1 [Compound I-431]
10 to 50	10 to 50	Cc1cc(-c2cccc(F)c2)cc(C(=O)NNS(=O)(=O)CC2CCN(C(=O)CCN(C)C)CC2)c1F [Compound I-432]
≤ 10	10 to 50	CNC(=O)c1cccc(-c2cc(C)c(F)c(C(=O)NNS(=O)(=O)CC3CCCCC3)c2)c1 [Compound I-433]
> 100	> 100	CN(C)C(=O)c1cc(Cl)c(F)c(C(=O)NNS(=O)(=O)C2CCOCC2)c1 [Compound I-434]
> 100	> 100	CC(=O)N1CCC(S(=O)(=O)NNC(=O)c2cc(Cl)cc(Cl)c2F)CC1 [Compound I-435]
50 to 100	> 100	O=C(NNS(=O)(=O)C1CCN(C(=O)C2CCC2)CC1)c1cc(Cl)cc(Cl)c1F [Compound I-436]
≤ 10	≤ 10	COCc1cc(Cl)c(F)c(C(=O)NNS(=O)(=O)CC2CCCCC2)c1 [Compound I-437]
10 to 50	10 to 50	Cc1cc(-c2cccc(F)c2)cc(C(=O)NNS(=O)(=O)C2CCOC2)c1F (stereo not drawn) [Compound I-438]
> 100	> 100	O=C(NNS(=O)(=O)C1CCOCC1)c1cc(C(=O)N2CCOCC2)cc(Cl)c1F [Compound I-439]
> 100	> 100	O=C(NNS(=O)(=O)C1CCOCC1)c1cc(Cn2ccnc2)cc(Cl)c1F [Compound I-440]

IC50 [1] [µM]	IC50 [2] [µM]	Structure (SMILES)
> 100	> 100	Cn1cnc2cc(-c3ccccc3)cc(C(=O)NNS(=O)(=O)C3CCCCC3)c21 [Compound I-441]
> 100	> 100	CN1CCN(Cc2cc(Cl)c(F)c(C(=O)NNS(=O)(=O)C3CCOCC3)c2)CC1 [Compound I-442]
≤ 10	≤ 10	Cc1cc(-c2cccc(C(=O)OCc3ccccc3)c2)cc(C(=O)NNS(=O)(=O)C2CCOCC2)c1F [Compound I-443]
≤ 10	≤ 10	Cc1cc(-c2cccc(C(=O)O)c2)cc(C(=O)NNS(=O)(=O)C2CCCCC2)c1F [Compound I-444]
10 to 50	> 100	COCCNC(=O)c1cccc(-c2cc(C)c(F)c(C(=O)NNS(=O)(=O)C3CCCCC3)c2)c1 [Compound I-445]
10 to 50	50 to 100	Cc1cc(-c2cccc(C(=O)OCc3ccccc3)c2)cc(C(=O)NNS(=O)(=O)CC2CCCCC2)c1F [Compound I-446]
≤ 10	10 to 50	COCCNC(=O)c1cccc(-c2cc(C)c(F)c(C(=O)NNS(=O)(=O)CC3CCCCC3)c2)c1 [Compound I-447]
> 100	> 100	O=C(NNS(=O)(=O)C1CCOCC1)c1cc(CN2CCOCC2)cc(Cl)c1F [Compound I-448]
50 to 100	50 to 100	Cc1cc(-c2cccc(C(=O)OCc3ccccc3)c2)cc(C(=O)NNS(=O)(=O)c2ccccc2)c1F [Compound I-449]
≤ 10	≤ 10	Cc1cccc(-c2ncc(C(=O)Nc3ccccc3)[nH]2)c1F [Compound I-450]
≤ 10	10 to 50	COCc1cc(Cl)c(F)c(C(=O)NNS(=O)(=O)C2CCCCC2)c1 [Compound I-451]
≤ 10	≤ 10	COCc1cc(Cl)c(F)c(C(=O)NNS(=O)(=O)CC2CCOCC2)c1 [Compound I-452]
> 100	> 100	COCc1cc(Cl)c(F)c(C(=O)NNS(=O)(=O)C2CCOCC2)c1 [Compound I-453]
50 to 100	10 to 50	O=C(NNS(=O)(=O)C1CCOCC1)c1cc(CN2CCCCC2)cc(Cl)c1F [Compound I-454]
10 to 50	> 100	Nc1ccc(-c2cc(Cl)c(F)c(C(=O)NNS(=O)(=O)C3CCOCC3)c2)cc1 [Compound I-455]
> 100	> 100	O=C(NNS(=O)(=O)C1CCCCC1)c1cc(CO)cc(Cl)c1F [Compound I-456]
≤ 10	≤ 10	O=C(NNS(=O)(=O)CC1CCCCC1)c1cc(CO)cc(Cl)c1F [Compound I-457]
> 100	> 100	CNC(=O)c1cccc(-c2cc(C)c(F)c(C(=O)NNS(=O)(=O)C3CCCCC3)c2)c1 [Compound I-458]
> 100	≤ 10	O=C(NNS(=O)(=O)C1CCOCC1)c1cc(-c2ccc(O)cc2)cc(Cl)c1F [Compound I-459]
≤ 10	10 to 50	O=C(NNS(=O)(=O)C1CCCCC1)c1cc(-c2ccc(O)cc2)cc(Cl)c1F [Compound I-460]
> 100	> 100	O=C(NNS(=O)(=O)C1CCCCC1)c1c(Cl)ccc(Cl)c1F [Compound I-461]
> 100	> 100	Cc1cc(C(C)(C)C)cc(C(=O)NNS(=O)(=O)c2ccccc2)c1O [Compound I-462]
